According to PMC8464939, “Epicatechin Gallate as Xanthine Oxidase Inhibitor: Inhibitory Kinetics, Binding Characteristics, Synergistic Inhibition, and Action Mechanism” (Foods, 2021):
Like-named read-outs stand apart in the source and are kept apart here.

Experiments:
XO = conditions: cited from earlier work
[1] = O2− radical scavenging activity assay (PMS–NADH system, NBT); conditions: ECG 45.0 μM
Description: NBT could be reduced to blue formazan by O2^− radical produced by the PMS–NADH system; thus, this method was used to evaluate the O2^− radical scavenging activity of ECG [33]. The reaction solutions were prepared by mixing NBT (55.0 μM), NADH (0.27 mM), and different concentrations of ECG, and then 0.2 mL PMS (0.155 mM) was added to initiate the reaction. After the samples were incubated for 15 min, the absorbance at 560 nm was measured. Ethanol was used instead of ECG as the blank group, and the values of decreasing percentage in absorbance were calculated to analyze the scavenging activity of ECG.

xanthine oxidase (XO) [2] = molecular target: T1, xanthine oxidase (XO) (Bos taurus, UniProt P80457); test: Fluorescence titration experiments (quenching, binding, thermodynamics, 3D fluorescence); parameters: species or system bovine
T1 sequence (P80457 whole entry): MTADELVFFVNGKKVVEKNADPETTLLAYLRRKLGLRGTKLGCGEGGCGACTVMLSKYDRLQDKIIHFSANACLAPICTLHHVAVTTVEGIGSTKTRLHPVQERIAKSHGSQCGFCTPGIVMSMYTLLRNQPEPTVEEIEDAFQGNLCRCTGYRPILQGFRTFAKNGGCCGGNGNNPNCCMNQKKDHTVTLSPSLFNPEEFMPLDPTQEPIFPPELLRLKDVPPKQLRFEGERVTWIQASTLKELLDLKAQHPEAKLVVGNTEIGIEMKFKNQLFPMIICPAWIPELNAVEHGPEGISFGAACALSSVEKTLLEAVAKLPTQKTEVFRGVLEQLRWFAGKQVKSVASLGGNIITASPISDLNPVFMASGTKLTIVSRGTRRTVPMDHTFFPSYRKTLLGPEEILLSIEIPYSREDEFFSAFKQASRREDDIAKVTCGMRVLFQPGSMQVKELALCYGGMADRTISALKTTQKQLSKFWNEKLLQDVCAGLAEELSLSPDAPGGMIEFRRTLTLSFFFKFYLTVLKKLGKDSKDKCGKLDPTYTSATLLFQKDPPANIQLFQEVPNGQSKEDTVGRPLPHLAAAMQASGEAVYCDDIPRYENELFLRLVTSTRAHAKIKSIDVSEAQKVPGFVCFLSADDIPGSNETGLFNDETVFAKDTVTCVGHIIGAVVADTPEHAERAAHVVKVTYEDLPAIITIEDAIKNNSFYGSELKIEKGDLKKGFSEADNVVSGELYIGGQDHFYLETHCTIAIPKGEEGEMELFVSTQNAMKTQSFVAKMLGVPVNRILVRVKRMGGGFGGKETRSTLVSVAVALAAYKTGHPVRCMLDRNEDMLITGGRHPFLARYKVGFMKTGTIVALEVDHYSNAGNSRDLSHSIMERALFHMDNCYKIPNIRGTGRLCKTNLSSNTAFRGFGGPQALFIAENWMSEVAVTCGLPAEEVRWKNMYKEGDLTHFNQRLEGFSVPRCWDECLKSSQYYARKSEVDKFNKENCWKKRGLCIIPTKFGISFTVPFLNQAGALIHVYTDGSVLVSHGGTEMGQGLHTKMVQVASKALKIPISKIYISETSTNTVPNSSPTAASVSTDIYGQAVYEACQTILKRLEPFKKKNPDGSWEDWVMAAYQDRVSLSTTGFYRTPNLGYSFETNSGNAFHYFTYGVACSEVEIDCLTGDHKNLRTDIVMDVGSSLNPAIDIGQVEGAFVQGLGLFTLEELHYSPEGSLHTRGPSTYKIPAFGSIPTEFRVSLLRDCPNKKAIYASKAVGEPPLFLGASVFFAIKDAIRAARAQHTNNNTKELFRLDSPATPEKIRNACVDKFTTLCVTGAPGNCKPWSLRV
Description: At three experimental temperatures (25, 31, and 37 °C), XO (1.0 μM) diluted in the Tris–HCl solution was placed in a 1.0 cm cuvette, and then ECG (0–30.0 μM) was added into XO solution successively to conduct the fluorescence titration experiments. After each addition, the fluorescence spectra of the mixed solutions within 300–500 nm were scanned at an excitation wavelength of 280 nm using a fluorescence photometer (F–7000, Hitachi, Japan). The width of the excitation and emission slit was 2.5 nm, respectively. Similarly, the synchronous fluorescence spectra of XO titrated by ECG were measured by setting the difference between excitation and emission wavelength (Δλem) to 15 and 60 nm, respectively. The free XO solution and a mixed sample of XO and ECG were prepared, and then the three-dimensional (3D) fluorescence spectra of the samples were determined; the scanning ranges of both excitation and emission wavelength were 200–600 nm. All fluorescence data were corrected to subtract the internal filtering effect by the following equation [34]:(4) Fc=Fme^(A1+A2)/2 where Fc and Fm represent the […] fluorescence intensity values, respectively; A1 and A2 are the absorbances of ECG at the excitation and emission wavelengths, respectively.
The changes of fluorescence spectra can reflect the binding characteristics between inhibitor and enzyme. […] The specific quenching mechanism of ECG on XO was determined by the relationship between quenching constant (KSV) and temperature, and the values of KSV and Kq (the quenching rate constant) were calculated by the well-known Stern–Volmer equation [44]. (6) F0/F=1+KSVQ=1+Kqτ0Q where F and F0 represent the fluorescence intensity values of XO with and without ECG, respectively; Q is the concentration of ECG; the value of the average fluorescence lifetime of fluorophore for biomacromolecules (τ0) is 10^−8 s. […] Furthermore, the binding constant (Ka) and the number of binding sites (n) were calculated through the following formula:(7) logF0−F/F=nlogKa−nlog1/Qt−(F0−F)Pt/F0 where [Qt] and [Pt] represent the concentrations of ECG and XO, respectively. […] The n values were close to 1, reflecting that XO had only one class of binding sites for ECG, which was consistent with the conclusions of enzyme kinetics analysis.
The values of thermodynamic parameters of the binding process between ECG and XO, such as entropy change (ΔS°), enthalpy change (ΔH°), and free energy change (ΔG°), were obtained by the van ‘t Hoff equation:
(9) ΔG=ΔH°−TΔS° where R is the gas constant (8.314 J mol^−1 K^−1), and T is the temperatures of fluorescence titration experiments (25, 31, and 37 °C). […] A similar study reported that the formation of the ECG–α-amylase complex was mainly driven by van der Waals and hydrogen bonds.

xanthine oxidase (XO) [3] = molecular target: T1, xanthine oxidase (XO); test: XO activity assay (uric acid formation, absorbance at 293 nm); type: biochemical, bovine
[4] = DPPH radical scavenging activity assay; conditions: ECG 15 μM
Description: The DPPH free radical scavenging activity of ECG was tested according to Aalim et al. with slight modification. DPPH was dissolved in ethanol, and then different concentrations of ECG were added to prepare a series of samples. The mixed solutions were protected from light and reacted for 30 min. The absorbance of the samples at 517 nm was determined by an enzyme-labeled instrument (Varioskan LUX, Thermo Fisher Scientific, Waltham, MA, USA). An equal volume of ethanol was used as a control. The free radical scavenging activity of ECG was assessed by the change of percentage in absorbance.

xanthine oxidase (XO) [5] = molecular target: T1, xanthine oxidase (XO); test: Inhibition of O2− radical generated by XO (NBT); type: biochemical, bovine; conditions: XO 0.7 μM
Description: The O2^− radicals generated during the catalytic process of XO could also be used to assess the antioxidant activity of ECG. The XO (0.70 μM) and different concentrations of ECG were mixed in Tris–HCl buffer and incubated at 37 °C for 30 min. Then, NBT (55.0 μM) and xanthine were added to the samples, respectively, and the absorbance of the mixture at 560 nm was recorded. A small amount of Triton X−100 (0.2%, v/v) was added for solubilization and the control group was equal volume ethanol.

xanthine oxidase (XO) [6] = molecular target: T1, xanthine oxidase (XO); test: CD spectra: secondary structure of XO; parameters: species or system bovine
Description: The CD spectrometer (Bio−Logic MOS 450, Claix, France) was used to determine the CD spectra to analyze the effects of ECG on the secondary structure of XO. The free XO (1.0 μM) and its mixed solutions with different molar ratios ([ECG]/[XO], 0:1, 10:1, 20:1 and 40:1) were prepared, and then the CD spectra of the samples in the range of 190−250 nm were measured in a nitrogen stream. The specific secondary structure contents were analyzed by our previous study.

xanthine oxidase (XO) [7] = molecular target: T1, xanthine oxidase (XO); test: Fluorescence microscopy imaging of XO; parameters: species or system bovine; conditions: XO 1.0 μM; ECG 40.0 μM
Description: The free XO solution and the mixture of ECG and XO were prepared and incubated for 1h at room temperature. The appropriate amount of samples was placed on a microscope slide, and then the structural changes of XO induced by ECG were observed through a fluorescent inverted microscope with an excitation light of FBW (IX73, Olympus, Japan).

xanthine oxidase (XO) [8] = molecular target: T1, xanthine oxidase (XO); test: Kinetic analysis of enzyme-catalyzed reaction (Lineweaver–Burk); type: biochemical, bovine
Source text: The same determination method of enzyme activity was used to conduct the inhibition kinetics analysis of ECG on XO. In the presence of a series of different concentrations of ECG, the concentration of XO or xanthine was changed to determine the catalytic rate, and then the inhibition type was ascertained by the Lineweaver-Burk plots in double reciprocal form. […] Km, Ki, and α are on behalf of the Michaelis-Menten constant, dissociation constant, and apparent coefficient, respectively.

polyphenoloxidase = system: polyphenoloxidase; parameters: method as in earlier work; conditions: ref 41 (Sae-Leaw et al.); cited from earlier work
[9] = previous study of the authors, read-out: IC50 for inhibiting XO activity
[10] = read-out: IC50 for inhibiting XO activity

## O=c1c(O)c(-c2ccc(O)c(O)c2)oc2cc(O)cc(O)c12 [quercetin]
XO; [9]
  IC50: 7.23 µM

## O=C(/C=C/c1ccc(O)c(O)c1)O[C@@H]1C[C@](O)(C(=O)O)C[C@@H](O)[C@H]1O [chlorogenic acid]
XO; [10]
  IC50: 6490 µM

## O=c1c(O)c(-c2cc(O)c(O)c(O)c2)oc2cc(O)cc(O)c12 [myricetin]
XO; [9]
  IC50: 8.66 µM

## O=C(O)/C=C/c1ccc(O)c(O)c1 [caffeic acid]
XO; [10]
  IC50: 7160 µM

## O=C(O[C@@H]1Cc2c(O)cc(O)cc2O[C@@H]1c1ccc(O)c(O)c1)c1cc(O)c(O)c(O)c1 [ECG, Epicatechin gallate]
XO; ref 12 (Yuan et al.), read-out: IC50 inhibiting XO
  IC50: 0.26 µM
[1]
  scavenging rate of O2− radical generated by PMS–NADH system: 55.64%
Xanthine oxidase (XO) [2]; 25, 31 and 37 °C
  n values: ~1
Xanthine oxidase (XO) [2]; 25, 31 and 37 °C, compared with maximum scattering collision rate constant
  Kq (quenching rate constant): > 2e+10 L/mol/s
Xanthine oxidase (XO) [2]; 25, 31 and 37 °C, read-out: binding constant Ka, magnitude
  Kd: ~100 µM
Xanthine oxidase (XO) [2]; 298 K
  Ksv: 1.76 ± 0.02 ×10^4 L mol^−1
  n (number of binding sites): 0.91 ± 0.01
  ΔG°: -24.32 ± 0.40 kJ/mol
Xanthine oxidase (XO) [2]; 298 K, read-out: Ka (binding constant) (converted)
  Kd: 54.9 µM
Xanthine oxidase (XO) [2]; 304 K
  Ksv: 1.32 ± 0.03 ×10^4 L mol^−1
  n (number of binding sites): 0.95 ± 0.02
  ΔG°: -24.31 ± 0.35 kJ/mol
Xanthine oxidase (XO) [2]; 304 K, read-out: Ka (binding constant) (converted)
  Kd: 66.2 µM
Xanthine oxidase (XO) [2]; 310 K
  Ksv: 1.15 ± 0.01 ×10^4 L mol^−1
  n (number of binding sites): 0.87 ± 0.02
  ΔG°: -24.29 ± 0.28 kJ/mol
Xanthine oxidase (XO) [2]; 310 K, read-out: Ka (binding constant) (converted)
  Kd: 81.3 µM
Xanthine oxidase (XO) [2]; XO 1.0 μM, ECG 15.0 μM
  decrease of 3D fluorescence intensity of XO peak 1 (λex/λem = 280/340 nm): 34.36%
  decrease of 3D fluorescence intensity of XO peak 2 (λex/λem = 230/335 nm): 47.59%
Xanthine oxidase (XO) [2]; van 't Hoff, 298–310 K
  ΔH°: -25.05 ± 0.20 kJ/mol
  ΔS°: −2.44 ± 0.07 J mol^−1 K^−1
Xanthine oxidase (XO) [3]; ECG 300 μM
  activity of XO at high ECG concentration: almost completely inhibited
Xanthine oxidase (XO) [3]; pH 7.4, XO 0.075 μM, xanthine 50.0 μM, read-out: IC50 for inhibiting XO activity
  IC50: 19.3 ± 0.45 µM
[4]
  DPPH radical scavenged: 90%
Xanthine oxidase (XO) [5]; read-out: dose at which relative inhibition rate of production of O2− radical reached 50%
  IC50: 18.5 µM
Xanthine oxidase (XO) [5]; xanthine 0.1, 0.2, 0.5 mM
  relative inhibition rate of generation of O2− radical from XO catalysis (final plateau): 90%
Xanthine oxidase (XO) [6]; [ECG]:[XO] 10:1
  Random Coil content of XO: 25.12 ± 0.69%
  α-Helix content of XO: 10.83 ± 0.51%
  β-Sheet content of XO: 42.51 ± 0.41%
  β-Turn content of XO: 21.65 ± 0.94%
Xanthine oxidase (XO) [6]; [ECG]:[XO] 20:1
  Random Coil content of XO: 24.03 ± 0.31%
  α-Helix content of XO: 10.96 ± 0.62%
  β-Sheet content of XO: 43.41 ± 0.74%
  β-Turn content of XO: 21.59 ± 0.13%
Xanthine oxidase (XO) [6]; [ECG]:[XO] 40:1
  Random Coil content of XO: 22.51 ± 0.24%
  α-Helix content of XO: 11.83 ± 0.93%
  β-Sheet content of XO: 45.02 ± 0.22%
  β-Turn content of XO: 21.39 ± 0.25%
Xanthine oxidase (XO) [7]
  average area of green bright spots of XO with ECG: 172.31 μm^2
Xanthine oxidase (XO) [8]; Lineweaver–Burk plots
  inhibition type: mixed inhibitor
Xanthine oxidase (XO) [8]; XO−xanthine complex
  αKi: 82.4 ± 0.70 µM
Xanthine oxidase (XO) [8]; dissociation constant, free XO
  Ki: 5.27 ± 0.24 µM
Xanthine oxidase (XO) [8]; plots of ν vs. [XO]
  reversibility of inhibition: reversibly inhibited
polyphenoloxidase
  inhibition type on polyphenoloxidase: mixed inhibitory effect

## O=c1c(O)c(-c2ccc(O)cc2)oc2cc(O)cc(O)c12 [kaempferol]
XO; previous study of the authors
  inhibition manner on XO: reversibly inhibited XO activity in a competitive manner
